From US9695155B2, “Herbicidal substituted pyrimidinyloxy benzene compounds” (E. I. DU PONT DE NEMOURS AND COMPANY, priority 2013, dated 2017)

What was measured:
wheat = assay: Test A postemergence; format: in vivo, Triticum aestivum; conditions: 1000 g ai/ha, 0 to 100 scale, 0 no effect, 100 complete control
Method in brief: (§1)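 Greenhouse pot test, loam/sand soil. Formulation: non-phytotoxic solvent mix plus surfactant. Pre: directed spray onto soil after sowing. Post: plants at 1–2 leaf, 2–10 cm. Rated visually vs untreated controls at ~10 d, 0 (no effect) to 100 (complete control).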

corn [1] = assay: Test C preemergence; format: in vivo, Zea mays; conditions: for Corn plant response rating: preemergence
Method in brief: (§2)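 Seeds were sown in loam–sand blend and sprayed preemergence, while plants at 1- to 4-leaf stage (2–18 cm) in peat-based medium received postemergence sprays; test chemicals were formulated in a non-phytotoxic solvent with surfactant. After 13–15 days in a greenhouse, injury was rated visually against controls, 0 (no effect) to 100 (complete control).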

velvetleaf [2] = assay: Test A preemergence; format: in vivo, Abutilon theophrasti; conditions: 1000 g ai/ha, 0 to 100 scale, 0 no effect, 100 complete control, approx. 10 days
Method in brief: as §1

barnyardgrass = assay: Test C postemergence; format: in vivo, Echinochloa crus-galli; conditions: for Plant response rating, Barnyardgrass: scale 0 to 100 (0 no effect, 100 complete control)
Method in brief: as §2

wheat, winter = assay: Test C postemergence; format: in vivo, Triticum aestivum; conditions: for Plant response rating, Wheat: scale 0 to 100 (0 no effect, 100 complete control)
Method in brief: as §2

Italian ryegrass = assay: Test C postemergence; format: in vivo, Lolium multiflorum; conditions: for Plant response rating, Ryegrass, Italian: scale 0 to 100 (0 no effect, 100 complete control)
Method in brief: as §2

blackgrass = assay: Test C preemergence; format: in vivo, Alopecurus myosuroides; conditions: for Blackgrass plant response rating: preemergence
Method in brief: as §2

sedge, umbrella = assay: Test B flooded paddy test; format: in vivo, Cyperus difformis; conditions: Flood, 250 g ai/ha; 0 to 100 scale where 0 is no effect and 100 is complete control
Method in brief: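 Plants at 2-leaf stage; pots flooded to 3 cm above soil and compound applied directly into paddy water, depth held throughout. After 13 to 15 days in greenhouse, visual rating versus controls on 0 (no effect) to 100 (complete control) scale.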

oilseed rape = assay: Test C postemergence; format: in vivo, Brassica napus; conditions: for Plant response rating, Oilseed Rape: scale 0 to 100 (0 no effect, 100 complete control)
Method in brief: as §2

galium = assay: Test C postemergence; format: in vivo, Galium aparine; conditions: for Plant response rating, Galium: scale 0 to 100 (0 no effect, 100 complete control)
Method in brief: as §2

velvetleaf [3] = assay: Test C postemergence; format: in vivo, Abutilon theophrasti; conditions: for Plant response rating, Velvetleaf: scale 0 to 100 (0 no effect, 100 complete control)
Method in brief: as §2

pigweed = assay: Test C preemergence; format: in vivo, Amaranthus retroflexus; conditions: for Pigweed plant response rating: preemergence
Method in brief: as §2

velvetleaf [4] = assay: Test C preemergence; format: in vivo, Abutilon theophrasti; conditions: for Velvetleaf plant response rating: preemergence
Method in brief: as §2

corn [5] = assay: Test A preemergence; format: in vivo, Zea mays; conditions: 1000 g ai/ha, 0 to 100 scale, 0 no effect, 100 complete control
Method in brief: as §1

lambsquarters = assay: Test C postemergence; format: in vivo, Chenopodium album; conditions: for Plant response rating, Lambsquarters: scale 0 to 100 (0 no effect, 100 complete control)
Method in brief: as §2

[6] = 16 g ai/ha, scale 0 to 100 (0 no effect, 100 complete control)
[7] = 62 g ai/ha, scale 0 (no effect) to 100 (complete control)
[8] = 125 g ai/ha, scale 0 (no effect) to 100 (complete control)
[9] = Preemergence, 31 g ai/ha, scale 0 to 100, 0 no effect, 100 complete control
[10] = 16 g ai/ha, postemergence, 0 is no effect, 100 is complete control
[11] = 125 g ai/ha, postemergence, visual rating

Structure (SMILES): N#Cc1cn(-c2c(Br)cccc2Oc2ncc(Cl)cn2)nn1 [Compound 116]
- Plant response rating, Wheat (wheat): 50
- Corn plant response rating (corn [1]; [6]): 0
- Corn plant response rating (corn [1]; [7]): 5
- Corn plant response rating (corn [1]; [8]): 25
- Plant response rating, Corn (corn [1]; [9]): 0
- Velvetleaf plant response rating (velvetleaf [2]): 100
- Plant response rating (0 to 100), Barnyardgrass (barnyardgrass; [10]): 0
- Plant response rating, Barnyardgrass (barnyardgrass; [11]): 20
- Plant response rating, Barnyardgrass (barnyardgrass; Postemergence, 31 g ai/ha, 13 to 15 days): 5
- Plant response rating, Barnyardgrass (barnyardgrass; Postemergence, 62 g ai/ha): 5
- Plant response rating (0 to 100), Wheat (wheat, winter; [10]): 0
- Plant response rating, Wheat (wheat, winter; [11]): 5
- Plant response rating, Wheat (wheat, winter; Postemergence, 62 g ai/ha): 5
- Plant response rating (0 to 100), Ryegrass, Italian (Italian ryegrass; [10]): 5
- Plant response rating, Ryegrass, Italian (Italian ryegrass; [11]): 5
- Plant response rating, Ryegrass, Italian (Italian ryegrass; Postemergence, 62 g ai/ha): 5
- Blackgrass plant response rating (blackgrass; [6]): 0
- Blackgrass plant response rating (blackgrass; [7]): 60
- Blackgrass plant response rating (blackgrass; [8]): 85
- Plant response rating, Blackgrass (blackgrass; [9]): 10
- Plant response rating, Sedge, Umbrella (sedge, umbrella): 30
- Plant response rating (0 to 100), Oilseed Rape (oilseed rape; [10]): 5
- Plant response rating, Oilseed Rape (oilseed rape; [11]): 40
- Plant response rating, Oilseed Rape (oilseed rape; Postemergence, 62 g ai/ha): 10
- Plant response rating (0 to 100), Galium (galium; [10]): 55
- Plant response rating, Galium (galium; [11]): 80
- Plant response rating, Galium (galium; Postemergence, 62 g ai/ha): 80
- Plant response rating (0 to 100), Velvetleaf (velvetleaf [3]; [10]): 25
- Plant response rating, Velvetleaf (velvetleaf [3]; [11]): 85
- Plant response rating, Velvetleaf (velvetleaf [3]; Postemergence, 62 g ai/ha): 60
- Pigweed plant response rating (pigweed; [6]): 75
- Pigweed plant response rating (pigweed; [7]): 100
- Pigweed plant response rating (pigweed; [8]): 100
- Plant response rating, Pigweed (pigweed; [9]): 100
- Velvetleaf plant response rating (velvetleaf [4]; [6]): 20
- Velvetleaf plant response rating (velvetleaf [4]; [7]): 100
- Velvetleaf plant response rating (velvetleaf [4]; [8]): 100
- Plant response rating, Velvetleaf (velvetleaf [4]; [9]): 70
- Plant response rating, Corn (corn [5]): 30
- Plant response rating (0 to 100), Lambsquarters (lambsquarters; [10]): 5
- Plant response rating, Lambsquarters (lambsquarters; [11]): 80
- Plant response rating, Lambsquarters (lambsquarters; Postemergence, 62 g ai/ha): 50
